Laboratory results: article PMC12340070, “A novel modulator of IL-6R prevents inflammation-induced preterm birth and improves newborn outcome” (EMBO Molecular Medicine, 2025)
Values joined by “and” are separate entries in the source; they are usually repeats but may differ in a detail not shown here. Equal entries are not always repeated. “Also recorded” adds a separate entry of the source. Values belong to the compound of their own block, whether it stands above or below them. Where a SMILES comes first, the peptide text is derived from it. Where no end group is shown, it is not given here. [ ]: non-standard residue; d: D form.

Tests used:
[1] = target: T1, IL-6R (HEK-Blue IL-6 cells) (Homo sapiens, UniProt P08887); assay: [125I]-HSJ633 binding and displacement on HEK-Blue IL-6 cells; details: 3–4 samples per group
T1 construct: host or cells: HEK-Blue IL-6 cells (HEK293-derived, H. sapiens)
Procedure: (§1) The Bolton–Hunter reaction was utilized to conjugate the N-hydroxysuccinimide ester of 3-(4-hydroxyphenyl) propionic acid, a tyrosine-like residue, to primary amines as per the manufacturer’s instructions. Briefly, the peptide was dissolved in modification buffer (pH 9.0), then 100 μL of Bolton–Hunter Reagent was added and incubated for 3 h with periodic mixing. After incubating, the solution was dialyzed in PBS using a PlusOne Mini Dialysis Kit. Then 25 μL of peptide, 80 μL of PBS, and 25 μL of I^125 were combined in a precoated tube for 15 min. The reaction was stopped, and C-18 spin columns were used to perform washes and collect the iodine-marked peptide. Radioactivity measurements were made for each batch of radioactive peptides using a Gamma counter (Packard Cobra-II Auto Gamma Counter).
(§2) The HEK-blue IL-6 cells were allowed to acclimatize for two passages to complete the stabilization of the receptor. Prior to experiments, media was changed to adjust for a maximum quantity of 500 μL per well. Subsequently, unlabeled HSJ633 (10^−4 M) was added and allowed to reach equilibrium for 15 min. HEK293 and HEK-Blue IL-6 cells were then treated with the labeled HSJ633 in a quantity equating to 50,000 CPM per well. […] All samples were measured using a Gamma counter (Packard Cobra-II Auto Gamma Counter).

lung parenchyma = details: mouse, in vivo
Procedure: To determine the maximal delay of administration of HSJ633, LPS was injected as previously described, and HSJ633 was either administered 2 h or 6 h after the LPS injection at GD16. Dams were consistently observed for delivery until term (G18.5–19.5), and the body weight and survival rate (if 2 or more pups are alive, the litter is considered alive) of the neonates were recorded. The prematurity rate was assessed by determining the number of dams delivering prematurely (gestation length before 18.5 days) out of the total number of dams in the same group. The pups were sacrificed at PT7 for histological analysis.
Histology was performed as described by Habelrih et al (Habelrih et al, [2023]). Images were captured using ×10 objective with a Zeiss AxioScan.Z1.

[2] = target: T1, IL-6R (HEK-Blue IL-6 cells); assay: IL-6-induced IL-1β, TNF-α and IL-6 mRNA in HEK-Blue IL-6 cells, dose-response (RT-qPCR); format: cell-based
Procedure: For in vitro dose–response experiments, HEK-blue IL-6 cells were allowed to acclimate for two passages to complete the stabilization of the receptor before experiments. Prior to experiments, cells at 70% of confluence were added to six-well plates, then starved overnight before media was changed 30 min prior to beginning the stimulation. After the 30 min pre-incubation, the cells were treated with HSJ633 (from 1 × 10^−12 to 1 × 10^−4 M) allowed to sit for 15 min, treated with 3.86 nM of IL-6, and incubated for 6 h. Cell lysis and mRNA extraction were performed by adding RiboZol. Samples were stored at −20 °C until RNA extraction and quantification (see section below).
For RT-qPCR experiments, cells were plated in 6-well plates at 70% of confluence and starved overnight. Cells were treated respectively with HSJ633, HSJ630, HSJ631, HSJ634, HSJ635, HSJ639 (1 × 10^−6 M), or TCZ (3.44 μM, based on validated doses (Sahraoui et al, [2014])) for TNF-α expression. For hIL-1, hIL-6, and hTNF-α expression, cells were treated with HSJ633 using concentrations ranging from 10^−11 to 10^−4 M, allowing for equilibrium over 15 min. Cells were then treated with […] of IL-6 for 6 h for both experiments. Cell lysis was performed by adding RIBOzol. Samples were stored at −20 °C until analysis by quantitative PCR. To determine the degree of phosphorylation of different proteins (STAT3, ERK, AKT, and p38), HEK-Blue IL-6 cells were treated with HSJ633 (10^−6 M), TCZ (3.44 uM) or vehicle for 30 min in DMEM only. Human IL-6 (3.86 nM) was added to the medium for 15 min to stimulate IL-6R pathways leading to STAT3, ERK, and AKT activation. For p38 activation, 25 min of stimulation with IL-6 was required. The wells were charged with radioimmunoprecipitation assay buffer (RIPA) at a concentration of 1×, cOmplete EDTA-free Protease Inhibitor Cocktail final concentration 1×, and phenylmethanesulfonyl fluoride (PMSF) 1 mM. Samples were shaken for 30 min followed by centrifugation at 12,000 RPM at 4 °C for 20 min to harvest the proteins. Proteins were stored at −80 °C until analysis by immunoblotting.
Samples (30 mg) of uterus, placenta, fetal membranes, as well as the fetal lung, brain, and intestine, were thawed and deposited in lysis buffer according to the manufacturer’s protocol (Qiagen RNeasy Plus Mini Kit). Cell lysis and RNA extraction were performed directly into RiboZol. RNA was extracted from tissue fragments and cells according to the manufacturer’s protocol. RNA was quantified with a NanoDrop 1000 spectrophotometer and samples (500 ng) were treated with DNAse I (1U). RNA was used to synthesize cDNA using iScript reverse transcription superMix. Quantitative gene expression analysis was performed on a Light Cycler 96 with iTaq Universal SYBR Green Supermix. […]
Target sequence in this assay (P08887 20-468): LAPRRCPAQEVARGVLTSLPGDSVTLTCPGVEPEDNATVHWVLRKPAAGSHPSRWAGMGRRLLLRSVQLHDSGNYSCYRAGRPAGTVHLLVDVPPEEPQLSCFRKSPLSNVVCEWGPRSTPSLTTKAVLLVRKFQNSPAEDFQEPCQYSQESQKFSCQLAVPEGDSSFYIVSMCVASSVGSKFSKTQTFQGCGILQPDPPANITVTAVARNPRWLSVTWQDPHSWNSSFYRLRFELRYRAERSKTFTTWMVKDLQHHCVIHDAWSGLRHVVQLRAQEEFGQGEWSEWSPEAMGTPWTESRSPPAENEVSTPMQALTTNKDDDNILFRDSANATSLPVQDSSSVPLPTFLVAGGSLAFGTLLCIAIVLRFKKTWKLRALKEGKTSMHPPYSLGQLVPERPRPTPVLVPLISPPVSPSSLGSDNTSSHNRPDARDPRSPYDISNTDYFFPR
Target sequence in this assay (P40189 23-918 partner): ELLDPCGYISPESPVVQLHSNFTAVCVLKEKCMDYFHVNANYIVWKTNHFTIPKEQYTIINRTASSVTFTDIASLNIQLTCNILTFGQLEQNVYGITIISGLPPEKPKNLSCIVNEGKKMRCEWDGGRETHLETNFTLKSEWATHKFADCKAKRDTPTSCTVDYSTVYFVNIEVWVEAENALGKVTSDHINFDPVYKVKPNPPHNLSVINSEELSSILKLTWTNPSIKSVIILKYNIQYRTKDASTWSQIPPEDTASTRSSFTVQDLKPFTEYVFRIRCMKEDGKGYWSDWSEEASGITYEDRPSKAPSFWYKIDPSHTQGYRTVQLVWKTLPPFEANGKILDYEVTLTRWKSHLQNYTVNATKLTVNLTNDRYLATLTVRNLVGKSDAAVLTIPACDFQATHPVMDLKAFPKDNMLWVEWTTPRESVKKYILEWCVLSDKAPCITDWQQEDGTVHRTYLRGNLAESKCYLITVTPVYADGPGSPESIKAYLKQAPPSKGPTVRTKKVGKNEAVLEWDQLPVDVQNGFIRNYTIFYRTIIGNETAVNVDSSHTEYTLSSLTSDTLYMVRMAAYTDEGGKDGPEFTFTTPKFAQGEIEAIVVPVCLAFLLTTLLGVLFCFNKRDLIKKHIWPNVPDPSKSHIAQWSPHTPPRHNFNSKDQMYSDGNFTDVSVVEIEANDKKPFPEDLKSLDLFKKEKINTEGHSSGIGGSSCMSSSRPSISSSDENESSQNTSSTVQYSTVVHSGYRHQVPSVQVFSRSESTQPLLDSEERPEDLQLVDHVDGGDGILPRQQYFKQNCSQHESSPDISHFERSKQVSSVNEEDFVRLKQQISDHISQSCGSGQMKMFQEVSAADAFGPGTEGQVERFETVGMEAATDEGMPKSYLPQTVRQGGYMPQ
Target sequence in this assay (P05231 30-212 partner): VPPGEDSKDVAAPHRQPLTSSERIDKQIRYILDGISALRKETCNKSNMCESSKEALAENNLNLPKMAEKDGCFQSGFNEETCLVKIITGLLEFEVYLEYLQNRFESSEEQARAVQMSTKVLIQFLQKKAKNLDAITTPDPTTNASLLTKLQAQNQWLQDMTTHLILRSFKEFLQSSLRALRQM

placenta = assay: HSJ633 biodistribution in placenta (fluorescence); format: in vivo, mouse; details: 1 mg/kg s.c., LPS 10 μg i.p., GD17, 4 h, pregnant mice; 11–12 samples per group
Procedure: Mice were euthanized after 4 h to analyze tissue distribution of the fluorescent-tagged compounds. Placentas were collected and fixed in 4% paraformaldehyde for 1 day and transferred into 30% sucrose for another day. Placental cryosections were stained with DAPI (0.0002 mg/mL) for nuclei. Images were captured using a ×20 objective with a Zeiss AxioScan.Z1. Fluorescence analysis was performed using ImageJ.

[3] = system: LPS-induced preterm birth in CD-1 mice; assay: STAT3 inhibitor efficacy in LPS-induced PTB: gestational length and prematurity rate; format: in vivo, mouse; details: for prevention of LPS-induced PTB: 5 mg/kg/day s.c., twice a day, GD16; for % PTB: group value; for GD (gestation day): individual dams, one per line
Procedure: Timed pregnant CD-1 mice at days 16 and 17 of gestation were anesthetized with isoflurane and given intraperitoneal (i.p.) injections of LPS (4 μg in 100 μL saline on GD16 and 6 μg in 100 μL saline on GD17, total 10 μg) or vehicle (100 μL). Doses of LPS were selected based on previous reports (Chang et al, [2011]; Elovitz and Mrinalini, [2004]; Fidel et al, [1994]; Sadowsky et al, [2006]; Salminen et al, [2008]; Urakubo et al, [2001]), preliminary dose–response experiments, and knowing that a systemic maternal infection is associated with the onset of labor (Romero et al, [2001]). A total of 100 μL of HSJ633 or HSJ639 (2 mg/kg/day), an anti-IL-6R antibody (800 μg/kg/day) or vehicle was injected subcutaneously (s.c.) 30 min before injections of LPS (to allow distribution of drugs to target tissues) and repeated twice daily until GD18.5.
Thirty minutes before administering LPS, on GD16, NSC74859 (5 mg/kg/day solubilized in 20% DMSO + water, injected twice a day s.c.) or rmgp130/Fc Chimera (10 μg i.p. on GD16 and 10 μg s.c. on GD16.5) were injected into distinct dams. The same LPS-induction PTB model as described above was used for these experiments (4 μg on GD16 + 6 μg on GD17, i.p.). Delivery was assessed until term (GD18.5–19.5).

[4] = target: T1, IL-6R (HEK-Blue IL-6 cells); assay: TNF-α expression in HEK-Blue IL-6 cells (RT-qPCR), peptide screening; format: cell-based; details: IL-6 3.86 nM 6 h, peptides 1 μM, TCZ 3.44 μM, RT-qPCR normalized to 18S, 2-9 samples per group
Procedure: HEK293 and HEK-blue IL-6 cells were purchased and were used at fewer than 15 passages and tested mycoplasma negative. Cells were cultured in DMEM growth medium supplemented with 10% fetal bovine serum (FBS), 50 U/mL penicillin, and 50 μg/mL streptomycin. HEK-blue IL-6 cell media was also supplemented with HEK-Blue Selection (1:250). Ba/F3-polylinker, Ba/F3-mgp130, and Ba/F3-mgp130-IL-6Rα cells were cultured in RPMI 1640 growth medium supplemented with 10% FBS, 50 U/mL penicillin, and 50 μg/mL streptomycin. These cells were maintained in murine IL-3 at 10 ng/mL and puromycin at 1 μg/mL. Cells were cultured in standard experimental conditions (37 °C, 5% CO2).
For RT-qPCR experiments, cells were plated in 6-well plates at 70% of confluence and starved overnight. […] Samples were stored at −20 °C until analysis by quantitative PCR. […]
Samples (30 mg) of uterus, placenta, fetal membranes, as well as the fetal lung, brain, and intestine, were thawed and deposited in lysis buffer according to the manufacturer’s protocol (Qiagen RNeasy Plus Mini Kit). […] RNA was quantified with a NanoDrop 1000 spectrophotometer and samples (500 ng) were treated with DNAse I (1U). […] Quantitative gene expression analysis was performed on a Light Cycler 96 with iTaq Universal SYBR Green Supermix. […]
Target sequence in this assay (P08887 20-468): as the sequence (P08887 20-468) above
Target sequence in this assay (P40189 23-918 partner): as the sequence (P40189 23-918 partner) above
Target sequence in this assay (P05231 30-212 partner): as the sequence (P05231 30-212 partner) above

HEK293 cells = assay: [125I]-HSJ633 binding on HEK293 cells devoid of IL-6R; set-up: species or system human; details: [125I]-HSJ633 10^−8 M, 1.5 h; four samples per group
Procedure: as §1, §2

IC50 ([1]; 1.5 h room temperature, gamma counter, read-out: IC50, displacement of bound [125I]-HSJ633 by cold HSJ633 (% of specific binding)): 12 nM
IC50 ([2]; HEK-Blue IL-6, HSJ633 10^−11–10^−4 M, IL-6 3.86 nM 6 h, RT-qPCR normalized to 18S, 3–8 samples per group, read-out: IC50 hIL-1β mRNA): 0.8 nM
IC50 ([2]; HEK-Blue IL-6, HSJ633 10^−11–10^−4 M, IL-6 3.86 nM 6 h, RT-qPCR normalized to 18S, 3–8 samples per group, read-out: IC50 hIL-6 mRNA): 2 nM
IC50 ([2]; HEK-Blue IL-6, HSJ633 10^−11–10^−4 M, IL-6 3.86 nM 6 h, RT-qPCR normalized to 18S, 3–8 samples per group, read-out: IC50 hTNF-a mRNA): 0.2 nM
IC50 ([2]; HEK-Blue IL-6, IL-6 3.86 nM, 6 h, RT-qPCR, average over three cytokines, read-out: average IC50, inhibition of IL-6-induced expression of IL-1β, TNF-α, and IL-6 mRNA): ~1 nM
Compound: CC(C)[C@@H](N)C(=O)N[C@H](CCCNC(=N)N)C(=O)N[C@H](CCCCN)C(=O)N[C@H](Cc1ccccc1)C(=O)N[C@H](CCC(N)=O)C(=O)N[C@H](CC(N)=O)C(=O)N[C@H](CO)C(=O)N1CCC[C@@H]1C(=O)N[C@H](C)C(=O)O [HSJ633] (HELM PEPTIDE1{[dV].[dR].[dK].[dF].[dQ].[dN].[dS].[dP].[dA]}$$$$V2.0)
alveolar density in lung, referee's reading of figure (lung parenchyma): causes loss of alveolar density in the lung

Compound: O=C1OC2(c3ccc(O)cc3Oc3cc(O)ccc32)c2ccc(N=C=S)cc21 [FITC]
placental fluorescence, LPS-treated (placenta): increase in signal intensity in the placenta

Compound: Cc1ccc(S(=O)(=O)OCC(=O)Nc2ccc(C(=O)O)c(O)c2)cc1 [NSC74859]
prevention of LPS-induced PTB [3]: successfully inhibited preterm birth
prevention of LPS-induced PTB ([3]; listed as NCS74859): effective in preventing LPS-induced PTB
% PTB ([3]; experiment of April 2022, less than 18 days = PTB): 25.00%
GD (gestation day) ([3]; experiment of April 2022, 18.5 days and more = term): 18 and 18.5 and 19
% PTB ([3]; experiment of May 2022): 20.00%
GD (gestation day) ([3]; experiment of May 2022): 19.5 and 18.5 and 17.5
% PTB ([3]; third, undated experiment): 42.86%
GD (gestation day) ([3]; third, undated experiment): 17 and 17.5 and 19 and 19.5

TNF-α expression [4]: induced TNF-α expression
Compound: IL-6: human IL-6, Peprotech 200-06, endogenous IL-6R ligand
displacement of [125I]-HSJ633 by IL-6 ([1]; [125I]-HSJ633 10^−8 M, IL-6 10^−4 M): not by non-radioactive IL-6; also recorded: IL-6 does not displace binding of HSJ633

Compound: [^125I]-HSJ633: HSJ633 iodine-labeled after Bolton–Hunter reaction ([dV][dR][dK][dF][dQ][dN][dS][dP][dA]; also: Bolton–Hunter reagent (3-(4-hydroxyphenyl)propionic acid) conjugated to primary amines, iodinated with 125I)
[125I]-HSJ633 binding on HEK293 cells devoid of IL-6R (HEK293 cells): No binding
